In brackets after ≈: the same amount, converted by molar mass. Read-outs that look alike come from different tables or passages of the source.
Legend:
[1] = biological target: T1, His-tagged cytoplasmic domain of EGFR (Homo sapiens, UniProt P00533); test: Inhibition of Epidermal Growth Factor Receptor Kinase (EGF-R) using recombinant enzyme; assay type: biochemical; conditions: recombinant enzyme; RR-SRC peptide; average of the number of tests; read-out: IC50;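 also: radiometric kinase assay measuring radiolabeled phosphate transfer from ATP onto the peptide tyrosine by scintillation counting, control is reaction without compound, background subtracted, IC50 from dose-response curve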
T1 construct: containing the EGFR cDNA encoding amino acids 645 - 1186 preceded by Met-Ala-(His)6; made in house; host or cells: Sf9 cells, recombinant baculovirus vHcEGFR52
T1 sequence (P00533 669-1210): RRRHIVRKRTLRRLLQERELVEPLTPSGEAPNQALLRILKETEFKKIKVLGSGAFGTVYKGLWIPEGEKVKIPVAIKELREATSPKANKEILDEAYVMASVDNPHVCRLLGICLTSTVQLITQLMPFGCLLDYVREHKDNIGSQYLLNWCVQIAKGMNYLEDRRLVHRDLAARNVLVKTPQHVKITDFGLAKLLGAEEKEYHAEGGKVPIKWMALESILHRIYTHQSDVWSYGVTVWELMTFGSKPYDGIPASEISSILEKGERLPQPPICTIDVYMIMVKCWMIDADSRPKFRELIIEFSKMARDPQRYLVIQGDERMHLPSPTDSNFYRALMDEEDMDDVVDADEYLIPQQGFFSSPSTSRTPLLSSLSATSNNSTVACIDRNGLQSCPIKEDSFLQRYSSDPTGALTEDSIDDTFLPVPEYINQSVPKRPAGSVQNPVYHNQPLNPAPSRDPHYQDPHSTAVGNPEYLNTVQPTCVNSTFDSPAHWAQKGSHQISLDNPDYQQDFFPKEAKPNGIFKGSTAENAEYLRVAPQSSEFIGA

[2] = tested on: MCF7; test: Inhibition of cancer cell growth as measured by cell number, MCF7; assay type: cell-based, human; conditions: Homo sapiens, MCF7, 48 h, Table 8;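 also: MCF7 was included as a line with little or no EGFR or HER2/neu expression, in contrast to the receptor-overexpressing lines of the panel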
Excerpt: (§1) The cell lines were chosen since they overexpressed epidermal growth factor receptor (EGFR) (i.e. A431) or HER2/neu (SKBR3), or had little to no expression of the these receptors (SW620, LOX, MCF7).

[3] = tested on: SW620; test: Inhibition of cancer cell growth as measured by cell number, SW620; assay type: cell-based, human; conditions: Homo sapiens, SW-620, 48 h, Table 8;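 also: SW620 was included as a cell line with little or no EGFR or HER2/neu expression, in contrast to receptor-overexpressing lines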
Excerpt: as §1

[4] = tested on: SKBR3; test: Inhibition of cancer cell growth as measured by cell number, SKBR3; assay type: cell-based, human; conditions: Table 8; for IC50: Homo sapiens;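 as to all read-outs here: SK-BR-3 cells were selected as a line overexpressing HER2/neu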
Excerpt: as §1

[5] = biological target: recombinant human MEK 1 (MAPKK) and recombinant human ERK2 (MAPK); test: Mitogen Activated Protein Kinase (MAPK) assay, two component coupled MEK 1 / ERK2; assay type: biochemical; conditions: separate entries for the same compound = evaluated more than one time;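 also: MEK 1-activated ERK2 phosphorylates MBP or Myc peptide with 33P-ATP, filter capture and scintillation counting, inhibitor preincubated with ERK2 30 min at 0 °C, inhibition relative to uninhibited control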
[6] = tested on: A431; test: Inhibition of cancer cell growth as measured by cell number, A431; assay type: cell-based, human; conditions: Table 8; for IC50: Homo sapiens, A-431, 48 h;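 as to all read-outs here: human A431 line, picked because it overexpresses epidermal growth factor receptor (EGFR)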
Excerpt: as §1

[7] = tested on: LOX; test: Inhibition of cancer cell growth as measured by cell number, LOX; assay type: cell-based, human; conditions: Homo sapiens, LOX, 48 h, Table 8;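 also: LOX cells served as a line with low or absent EGFR and HER2/neu expression, in contrast to receptor-overexpressing lines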
Excerpt: as §1

[8] = read-out: IC50 MCF7, cell number, Sulforhodamine B, 48 hours exposure
[9] = read-out: IC50 SW620, cell number, Sulforhodamine B, 48 hours exposure
[10] = SK-BR-3, 48 h, read-out: IC50 SKBR3, cell number, Sulforhodamine B, 48 hours exposure
[11] = read-out: IC50 A431, cell number, Sulforhodamine B, 48 hours exposure
[12] = read-out: IC50 LOX, cell number, Sulforhodamine B, 48 hours exposure
[13] = cell number, Sulforhodamine B, 48 hours exposure
[14] = cell number, Sulforhodamine B, 48 hours exposure, read-out: IC50 MCF7
[15] = cell number, Sulforhodamine B, 48 hours exposure, read-out: IC50 SW620
[16] = SK-BR-3, cell number, Sulforhodamine B, 48 hours exposure, read-out: IC50 SKBR3
[17] = cell number, Sulforhodamine B, 48 hours exposure, read-out: IC50 A431
[18] = cell number, Sulforhodamine B, 48 hours exposure, read-out: IC50 LOX

Row | Compound | IC50 [1] [µM] | IC50 [2, 8] [µg/mL] | IC50 [3, 9] [µg/mL] | IC50 [4, 10] [µg/mL] | IC50 [5] [µM] | IC50 [6, 11] [µg/mL] | IC50 [7, 12] [µg/mL] | IC50 SKBR3 [4, 13] [µg/mL] | IC50 A431 [6, 13] [µg/mL] | IC50 [2, 14] [µg/mL] | IC50 [3, 15] [µg/mL] | IC50 [4, 16] [µg/mL] | IC50 [6, 17] [µg/mL] | IC50 [7, 18] [µg/mL]
1 | Cc1cc([N+](=O)[O-])cc2c(Nc3cccc(Br)c3)c(C#N)cnc12 [Example 105, 4-[(3-Bromophenyl)amino]-8-methyl-6-nitro-3-quinolinecarbonitrile] | 0.001 | 2.09 (≈ 5.45 µM) | 0.06 (≈ 0.157 µM) | 1.84 (≈ 4.8 µM) | > 100 | 0.13 (≈ 0.339 µM) | 0.72 (≈ 1.88 µM) | – | – | – | – | – | – | –
2 | C=CC(=O)Nc1ccc2ncc(C#N)c(Nc3cccc(OC)c3)c2c1 [Example 138, N-{3-Cyano-4-[(3-methoxyphenyl)amino]-6-quinolinyl}-2-propenamide] | 0.0035 | 3.51 (≈ 10.2 µM) | 3.52 (≈ 10.2 µM) | < 0.01 | – | 0.44 (≈ 1.28 µM) | 1.12 (≈ 3.25 µM) | – | – | – | – | – | – | –
3 | C=CC(=O)Nc1ccc2ncc(C#N)c(Nc3ccc(Br)cc3)c2c1 [Example 151, N-{4-[(4-Bromophenyl)amino]-3-cyano-6-quinolinyl} -2-propenamide] | 0.5 | 0.61 (≈ 1.55 µM) | < 0.01 | 0.07 (≈ 0.178 µM) | – | 0.09 (≈ 0.229 µM) | 0.08 (≈ 0.203 µM) | – | – | – | – | – | – | –
4 | N#Cc1cnc2ccc([N+](=O)[O-])cc2c1Nc1ccc(F)c(F)c1 [Example 156, 4-[(3,4-Difluorophenyl)amino]-6-nitro-3-quinolinecarbonitrile] | 0.5 | 7.57 (≈ 23.2 µM) | 7.91 (≈ 24.2 µM) | 7.43 (≈ 22.8 µM) | > 100 | 3.77 (≈ 11.6 µM) | 67 (≈ 205 µM) | – | – | – | – | – | – | –
5 | N#Cc1cccc(Nc2c(C#N)cnc3ccc(N)cc23)c1 [Example 162, 6-Amino-4-[(3-cyanophenyl)amino]-3-quinolinecarbonitrile] | – | 16.4 (≈ 57.3 µM) | 33.5 (≈ 118 µM) | 7.15 (≈ 25.1 µM) | 35 | 6.87 (≈ 24.1 µM) | 8.13 (≈ 28.5 µM) | – | – | – | – | – | – | –
6 | N#Cc1cccc(Nc2c(C#N)cnc3ccc([N+](=O)[O-])cc23)c1 [Example 163, 4-[(3-Cyanophenyl)amino]-6-nitro-3-quinolinecarbonitrile] | – | 17.4 (≈ 55.3 µM) | 47.3 (≈ 150 µM) | 7.28 (≈ 23.1 µM) | > 100 | 7.02 (≈ 22.3 µM) | 64.2 (≈ 204 µM) | – | – | – | – | – | – | –
7 | C#Cc1cccc(Nc2c(C#N)cnc3ccc(NC(=O)C#CC)cc23)c1 [Example 164, N-{3-Cyano-4-[(3-ethynylphenyl)amino]-6-quinolinyl}-2-butynamide] | 0.09 | 57 (≈ 163 µM) | – | 0.7 (≈ 2 µM) | > 100 | 0.6 (≈ 1.71 µM) | 0.9 (≈ 2.57 µM) | 0.684 (≈ 1.95 µM) | 0.322 (≈ 0.919 µM) | – | – | – | – | –
8 | C#Cc1cccc(Nc2c(C#N)cnc3ccc(NC(=O)C=C)cc23)c1 [Example 165, N-{3-Cyano-4-[(3-ethynyphenyl)amino]-6-quinolinyl)-2-propenamide] | 0.0005 | 5.8 (≈ 17.1 µM) | 3 (≈ 8.87 µM) | 0.1 (≈ 0.296 µM) | > 100 | 0.2 (≈ 0.591 µM) | 0.8 (≈ 2.36 µM) | – | – | – | – | – | – | –
9 | C#Cc1cccc(Nc2c(C#N)cnc3ccc(N)cc23)c1 [Example 167, 6-Amino-4-[(3-ethynylphenyl)amino]-3-quinolinecarbonitrile] | – | 8.5 (≈ 29.9 µM) | 8.1 (≈ 28.5 µM) | 3.7 (≈ 13 µM) | > 100 | 2.6 (≈ 9.14 µM) | 5.3 (≈ 18.6 µM) | – | – | – | – | – | – | –
10 | C#Cc1cccc(Nc2c(C#N)cnc3ccc([N+](=O)[O-])cc23)c1 [Example 168, 4-[(3-Ethynylphenyl)amino]-6-nitro-3-quinolinecarbonitrile] | – | 5.94 (≈ 18.9 µM) | 9.1 (≈ 29 µM) | 1.38 (≈ 4.39 µM) | 80 | 1.57 (≈ 5 µM) | 1.76 (≈ 5.6 µM) | – | – | – | – | – | – | –
11 | C=C(CC(=O)Nc1ccc2ncc(C#N)c(Nc3cccc(Br)c3)c2c1)C(=O)O [Example 186, 4-[[4-[(3-Bromophenyl)amino]-3-cyano-6-quinolinyl]-amino]-2-methylene-4-oxo-butanoic acid] | 0.1 | 42.5 (≈ 94.2 µM) | 62.6 (≈ 139 µM) | 21.5 (≈ 47.6 µM) | – | 37.6 (≈ 83.3 µM) | 46.4 (≈ 103 µM) | – | – | – | – | – | – | –
12 | COc1cc2ncc(C#N)c(Nc3ccc(Sc4ccccc4)c(Cl)c3)c2cc1OC [Example 255, 4-[3-Chloro-4-(phenylthio)phenylamino]-6,7-dimethoxy-3-quinolinecarbonitrile] | 0.1 | 2.85 (≈ 6.36 µM) | 0.58 (≈ 1.29 µM) | 0.35 (≈ 0.781 µM) | – | 0.59 (≈ 1.32 µM) | 0.69 (≈ 1.54 µM) | – | – | – | – | – | – | –
13 | CCOc1cc2ncc(C#N)c(Nc3ccc(F)cc3)c2cc1OCC [Example 260, 4-(4-fluorophenylamino)-6,7-diethoxy-3-quinolinecarbonitrile] | – | 9.98 (≈ 28.4 µM) | 0.32 (≈ 0.911 µM) | 0.08 (≈ 0.228 µM) | 55 | 0.06 (≈ 0.171 µM) | 0.26 (≈ 0.74 µM) | – | – | – | – | – | – | –
14 | CCOc1cc2ncc(C#N)c(Nc3cccc(F)c3)c2cc1OCC [Example 263, 4-(3-Fluorophenylamino)-6,7-diethoxy-3-quinolinecarbonitrile] | – | – | – | – | 80 | – | – | – | – | 8.44 (≈ 24 µM) | 5.79 (≈ 16.5 µM) | 7.5 (≈ 21.3 µM) | 6.9 (≈ 19.6 µM) | 5.66 (≈ 16.1 µM)
15 | N#Cc1cnc2ccc(NC(=O)C#CCN3CCOCC3)cc2c1Nc1cccc(Br)c1 [Example 328, N-[4-[(3-Bromophenyl)amino]-3-cyano-6-quinolinyl]-4-morpholino-2-butynamide] | 0.0045 | – | – | – | > 100 | – | – | – | – | 0.78 (≈ 1.59 µM) | 0.15 (≈ 0.306 µM) | 0.02 (≈ 0.0408 µM) | 0.19 (≈ 0.387 µM) | 0.33 (≈ 0.673 µM)
16 | CN(C)CC#CC(=O)Nc1ccc2ncc(C#N)c(Nc3cccc(Br)c3)c2c1 [Example 329, N-[4-[(3-Bromophenyl)amino]-3-cyano-6-quinolinyl]-4-dimethylamino-2-butynamide] | 0.00045 | – | – | – | > 100 | – | – | – | – | 0.75 (≈ 1.67 µM) | 0.03 (≈ 0.0669 µM) | 0.21 (≈ 0.468 µM) | 0.22 (≈ 0.491 µM) | 0.58 (≈ 1.29 µM)
17 | COCC#CC(=O)Nc1ccc2ncc(C#N)c(Nc3cccc(Br)c3)c2c1 [Example 330, N-[4-[(3-Bromophenyl)amino]-3-cyano-6-quinoliny]-4-methoxy-2-butynamide] | 0.00028 | – | – | – | > 100 | – | – | – | – | 0.36 (≈ 0.827 µM) | 0.02 (≈ 0.0459 µM) | 0.23 (≈ 0.528 µM) | 0.05 (≈ 0.115 µM) | 0.02 (≈ 0.0459 µM)
18 | C=CC(=O)Nc1ccc2ncc(C#N)c(Nc3cccc(N(C)C)c3)c2c1 [Example 391, N-[3-Cyano-4-(3-dimethylaminophenylamino)quinolin-6-yl]acrylamide] | – | – | – | – | > 100 | – | – | – | – | 6.53 (≈ 18.3 µM) | 5.23 (≈ 14.6 µM) | 0.4 (≈ 1.12 µM) | 0.34 (≈ 0.951 µM) | 0.1 (≈ 0.28 µM)
19 | C=CC(=O)Nc1ccc2ncc(C#N)c(Nc3ccc(N(C)C)cc3)c2c1 [Example 392, N-[3-Cyano-4-(4-dimethylaminophenylamino)quinolin-6-yl]acrylamide] | – | – | – | – | 40 | – | – | – | – | 3.66 (≈ 10.2 µM) | 73.3 (≈ 205 µM) | 2.61 (≈ 7.3 µM) | 0.46 (≈ 1.29 µM) | 1.99 (≈ 5.57 µM)
20 | CC#CC(=O)Nc1ccc2ncc(C#N)c(Nc3cccc(N(C)C)c3)c2c1 [Example 393, But-2-ynoic Acid [3-Cyano-4-(3-dimethylaminophenylamino)quinolin-6-yl]amide] | – | – | – | – | 40 | – | – | – | – | 4 (≈ 10.8 µM) | 2.25 (≈ 6.09 µM) | 0.84 (≈ 2.27 µM) | 0.45 (≈ 1.22 µM) | 0.85 (≈ 2.3 µM)
